Source: patent US11752188B2, “Compositions and methods for nutritional supplements” (DailyColors Health Inc., priority 2020, dated 2023)

Tests used:
recombinant human CD73 = molecular target: T1, recombinant human CD73 (Homo sapiens, UniProt P21589); assay: CD73 in vitro enzymatic assay (colorimetric 630 nm); type: biochemical
T1 construct: purchased BPS Bioscience 71184 (enzyme); kit #72055
T1 sequence (P21589 27-549): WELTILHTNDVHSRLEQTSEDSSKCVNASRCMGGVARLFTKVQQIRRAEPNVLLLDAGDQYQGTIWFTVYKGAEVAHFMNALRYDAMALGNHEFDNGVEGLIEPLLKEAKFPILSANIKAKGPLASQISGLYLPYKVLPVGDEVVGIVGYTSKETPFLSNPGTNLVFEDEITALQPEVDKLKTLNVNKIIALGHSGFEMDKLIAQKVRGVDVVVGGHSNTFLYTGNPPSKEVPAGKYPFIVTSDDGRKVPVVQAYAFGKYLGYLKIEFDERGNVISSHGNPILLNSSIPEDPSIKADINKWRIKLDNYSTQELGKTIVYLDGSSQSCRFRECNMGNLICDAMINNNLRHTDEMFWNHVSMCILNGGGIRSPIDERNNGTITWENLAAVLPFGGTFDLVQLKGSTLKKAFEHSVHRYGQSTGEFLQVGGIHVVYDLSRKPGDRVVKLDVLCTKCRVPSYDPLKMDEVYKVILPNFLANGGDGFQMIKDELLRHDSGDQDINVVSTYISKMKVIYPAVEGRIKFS
Description: Here, D5 is the Yellow Blend, D9 is the Purple Blend, D21 is the Green Blend, D13 is the Red Blend, and D31 is CBD. As before, the red blend included Apple Extract, Pomegranate Extract, Tomato Powder, Beet; the green blend included Olive Extract, Rosemary Extract, Green Coffee Bean Extract, Kale; the orange/yellow blend included Onion Extract, Ginger Extract, Grapefruit Extract, Carrot; and the purple/blue blend included Grape, Blueberry Extract, Currant, Elderberry.
Assay Conditions: In general, all assays points were done by following the CD39 and CD73 Inhibitor Screening Assay Kit protocol (BPS Bioscience, #79278 and 72055, respectively). The CD73 enzymatic reactions were conducted in duplicate at room temperature for 30 minutes in a 50 μl mixture containing assay buffer, […], CD73 enzymes, and the test compound. Test compounds were preincubated with the enzyme for 30 minutes. Reactions were started by addition of the substrate. The 50 μl reactions were carried out in a 96-well transparent plate. After enzymatic reactions, 100 μl of Colorimetric Detection Reagent was added to the reaction mix. After a 15 minutes incubation, absorbance was measured using a Tecan plate reader at 630 nm.
Data Analysis: Enzyme activity assays were performed in duplicates at each concentration. The Absorbance intensity data were analyzed and compared. In the absence of the compound, the intensity in each data set was defined as 100% (Ce) activity. In the absence of enzyme, the intensity in each data set was defined as 0% (C0) activity.

recombinant human CD39 = molecular target: T2, recombinant human CD39 (Homo sapiens, UniProt P49961); assay: CD39 in vitro enzymatic assay (ATP, colorimetric 630 nm); type: biochemical; conditions: TABLE 81;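 note: test compound preincubated 30 min with enzyme, then 30 min reaction with ATP at room temperature, absorbance after detection reagent, 100% activity without compound, 0% without enzyme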
T2 construct: purchased BPS Bioscience 71284 (enzyme); kit #79278
T2 sequence (P49961 1-510): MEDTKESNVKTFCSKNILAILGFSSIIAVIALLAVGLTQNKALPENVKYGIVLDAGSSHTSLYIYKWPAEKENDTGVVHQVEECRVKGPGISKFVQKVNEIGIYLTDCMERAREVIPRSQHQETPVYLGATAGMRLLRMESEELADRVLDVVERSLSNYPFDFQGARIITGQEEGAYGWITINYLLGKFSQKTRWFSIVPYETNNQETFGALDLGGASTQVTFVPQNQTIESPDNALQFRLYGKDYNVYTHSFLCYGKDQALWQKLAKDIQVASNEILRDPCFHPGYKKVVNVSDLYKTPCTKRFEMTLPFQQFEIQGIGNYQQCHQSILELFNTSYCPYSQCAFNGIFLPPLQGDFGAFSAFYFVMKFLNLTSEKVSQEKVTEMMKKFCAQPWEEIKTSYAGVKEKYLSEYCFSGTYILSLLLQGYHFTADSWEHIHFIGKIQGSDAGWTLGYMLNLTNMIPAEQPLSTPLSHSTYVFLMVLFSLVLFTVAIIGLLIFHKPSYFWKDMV
Description: The CD39 enzymatic reactions were conducted in duplicate at room temperature for 30 minutes in a 50 μl mixture containing assay buffer, ATP, CD39 enzymes, and the test compound. Test compounds were preincubated with the enzyme for 30 minutes. Reactions were started by addition of the substrate. The 50 μl reactions were carried out in a 96-well transparent plate. After enzymatic reactions, 100 μl of Colorimetric Detection Reagent was added to the reaction mix. After a 15 minutes incubation, absorbance was measured using a Tecan plate reader at 630 nm.

Nc1ncnc2c1ncn2[C@@H]1O[C@H](COP(=O)(O)CP(=O)(O)O)[C@@H](O)[C@H]1O [AMPCP]
Activity (%) Repeat 1 (recombinant human CD73; 0.1 μM, TABLE 93): 81%
Activity (%) Repeat 2 (recombinant human CD73; 0.1 μM, TABLE 93): 96%
Inhibition (%) (recombinant human CD73; 0.1 μM, TABLE 93): 12%
Net Signal (Absorbance) Repeat 1 (recombinant human CD73; 0.1 μM, TABLE 93): 0.14
Net Signal (Absorbance) Repeat 2 (recombinant human CD73; 0.1 μM, TABLE 93): 0.17
Activity (%) Rep. 1 (recombinant human CD73; 1 μM, TABLE 90): 92%
Activity (%) Rep. 2 (recombinant human CD73; 1 μM, TABLE 90): 96%
Inhibition (%) (recombinant human CD73; 1 μM, TABLE 90): 6%
Net absorbance Rep. 1 (recombinant human CD73; 1 μM, TABLE 90): 0.368
Net absorbance Rep. 2 (recombinant human CD73; 1 μM, TABLE 90): 0.383
Activity (%) Rep. 1 (recombinant human CD73; 1 μM, TABLE 91): 89%
Activity (%) Rep. 2 (recombinant human CD73; 1 μM, TABLE 91): 89%
Inhibition (%) (recombinant human CD73; 1 μM, TABLE 91): 11%
Net absorbance Rep. 1 (recombinant human CD73; 1 μM, TABLE 91): 0.30
Net absorbance Rep. 2 (recombinant human CD73; 1 μM, TABLE 91): 0.30
Activity (%) Repeat 1 (recombinant human CD73; 1 μM, TABLE 93): 53%
Activity (%) Repeat 2 (recombinant human CD73; 1 μM, TABLE 93): 64%
Inhibition (%) (recombinant human CD73; 1 μM, TABLE 93): 41%
Net Signal (Absorbance) Repeat 1 (recombinant human CD73; 1 μM, TABLE 93): 0.09
Net Signal (Absorbance) Repeat 2 (recombinant human CD73; 1 μM, TABLE 93): 0.11
Activity (%) Rep. 1 (recombinant human CD73; 10 μM, TABLE 90): 74%
Activity (%) Rep. 2 (recombinant human CD73; 10 μM, TABLE 90): 76%
Inhibition (%) (recombinant human CD73; 10 μM, TABLE 90): 25%
Net absorbance Rep. 1 (recombinant human CD73; 10 μM, TABLE 90): 0.298
Net absorbance Rep. 2 (recombinant human CD73; 10 μM, TABLE 90): 0.306
Activity (%) Rep. 1 (recombinant human CD73; 10 μM, TABLE 91): 52%
Activity (%) Rep. 2 (recombinant human CD73; 10 μM, TABLE 91): 59%
Inhibition (%) (recombinant human CD73; 10 μM, TABLE 91): 45%
Net absorbance Rep. 1 (recombinant human CD73; 10 μM, TABLE 91): 0.18
Net absorbance Rep. 2 (recombinant human CD73; 10 μM, TABLE 91): 0.20
Activity (%) Repeat 1 (recombinant human CD73; 10 μM, TABLE 93): 20%
Activity (%) Repeat 2 (recombinant human CD73; 10 μM, TABLE 93): 28%
Inhibition (%) (recombinant human CD73; 10 μM, TABLE 93): 76%
Net Signal (Absorbance) Repeat 1 (recombinant human CD73; 10 μM, TABLE 93): 0.04
Net Signal (Absorbance) Repeat 2 (recombinant human CD73; 10 μM, TABLE 93): 0.05
Activity (%) Rep. 1 (recombinant human CD73; 100 μM, TABLE 90): 17%
Activity (%) Rep. 2 (recombinant human CD73; 100 μM, TABLE 90): 22%
Inhibition (%) (recombinant human CD73; 100 μM, TABLE 90): 80%
Net absorbance Rep. 1 (recombinant human CD73; 100 μM, TABLE 90): 0.071
Net absorbance Rep. 2 (recombinant human CD73; 100 μM, TABLE 90): 0.089
Activity (%) Rep. 1 (recombinant human CD73; 100 μM, TABLE 91): 13%
Activity (%) Rep. 2 (recombinant human CD73; 100 μM, TABLE 91): 12%
Inhibition (%) (recombinant human CD73; 100 μM, TABLE 91): 88%
Net absorbance Rep. 1 (recombinant human CD73; 100 μM, TABLE 91): 0.04
Net absorbance Rep. 2 (recombinant human CD73; 100 μM, TABLE 91): 0.04

C=C(C)[C@@H]1CCC(C)=C[C@H]1c1c(O)cc(CCCCC)cc1O [D31, CBD]
Activity (%) Rep. 1 (recombinant human CD39; 0.0004%): 93%
Activity (%) Rep. 2 (recombinant human CD39; 0.0004%): 91%
Inhibition (%) (recombinant human CD39; 0.0004%): 8%
Net absorbance Rep. 1 (recombinant human CD39; 0.0004%): 0.50
Net absorbance Rep. 2 (recombinant human CD39; 0.0004%): 0.49
Activity (%) Rep. 1 (recombinant human CD39; 0.002%): 90%
Activity (%) Rep. 2 (recombinant human CD39; 0.002%): 92%
Inhibition (%) (recombinant human CD39; 0.002%): 9%
Net absorbance Rep. 1 (recombinant human CD39; 0.002%): 0.48
Net absorbance Rep. 2 (recombinant human CD39; 0.002%): 0.49
Activity (%) Rep. 1 (recombinant human CD39; 0.01%): 96%
Activity (%) Rep. 2 (recombinant human CD39; 0.01%): 103%
Inhibition (%) (recombinant human CD39; 0.01%): 1%
Net absorbance Rep. 1 (recombinant human CD39; 0.01%): 0.52
Net absorbance Rep. 2 (recombinant human CD39; 0.01%): 0.55
Activity (%) Rep. 1 (recombinant human CD73; 0.0004%, TABLE 91): 104%
Activity (%) Rep. 2 (recombinant human CD73; 0.0004%, TABLE 91): 101%
Inhibition (%) (recombinant human CD73; 0.0004%, TABLE 91): 0%
Net absorbance Rep. 1 (recombinant human CD73; 0.0004%, TABLE 91): 0.35
Net absorbance Rep. 2 (recombinant human CD73; 0.0004%, TABLE 91): 0.34
Activity (%) Rep. 1 (recombinant human CD73; 0.002%, TABLE 91): 103%
Activity (%) Rep. 2 (recombinant human CD73; 0.002%, TABLE 91): 100%
Inhibition (%) (recombinant human CD73; 0.002%, TABLE 91): 0%
Net absorbance Rep. 1 (recombinant human CD73; 0.002%, TABLE 91): 0.35
Net absorbance Rep. 2 (recombinant human CD73; 0.002%, TABLE 91): 0.34
Activity (%) Rep. 1 (recombinant human CD73; 0.01%, TABLE 91): 106%
Activity (%) Rep. 2 (recombinant human CD73; 0.01%, TABLE 91): 98%
Inhibition (%) (recombinant human CD73; 0.01%, TABLE 91): 0%
Net absorbance Rep. 1 (recombinant human CD73; 0.01%, TABLE 91): 0.35
Net absorbance Rep. 2 (recombinant human CD73; 0.01%, TABLE 91): 0.33
